# In US9326515B2, “Fungicidal 3-[(1,3-thiazol-4-ylmethoxyimino)(phenyl)methyl]-2-substituted-1,2,4-oxadiazol-5(2H)-one derivatives” (BAYER INTELLECTUAL PROPERTY GMBH, priority 2011, dated 2016):
# Assays:
# [1] = pH 2.7
# Phytophthora infestans = assay type: in vivo; details: 100 ppm of active ingredient, spray on young tomato plants, inoculated one day after treatment, evaluated 7 days after inoculation
# Plasmopara viticola = test: Example I: in vivo preventive test on Plasmopara viticola (grapevines); details: 10 ppm of active ingredient, spray on young grapevine plants, inoculated after spray coating dried, evaluated 6 days after inoculation
# Experimental: To produce a suitable preparation of active compound, 1 part by weight of active compound is mixed with the stated amounts of solvent and emulsifier, and the concentrate is diluted with water to the desired concentration.
# To test for preventive activity, young plants are sprayed with the preparation of active compound at the stated rate of application. After the spray coating has dried on, the plants are inoculated with an aqueous spore suspension of Plasmopara viticola and then remain for 1 day in an incubation cabinet at approximately 20° C. and a relative atmospheric humidity of 100%. The plant is subsequently placed for 4 days in a greenhouse at approximately 21° C. and a relative atmospheric humidity of approximately 90%. The plants are then misted and placed for 1 day in an incubation cabinet.
# The test is evaluated 6 days after the inoculation. 0% means an efficacy which corresponds to that of the untreated control, while an efficacy of 100% means that no disease is observed.
# [2] = pH 2.7; remark: listed apart in the source
smiles,measurement,setting,value
"CN(O)C(=N)/C(=N\OCc1csc(Br)n1)c1ccccc1 [Example V-3, (2Z)-2-{[(2-bromo-1,3-thiazol-4-yl)methoxy]imino}-N-hydroxy-N-methyl-2-phenylethanimidamide]",chromatographic logP,[1],1.34
"Cn1oc(=O)nc1/C(=N\OCc1csc(Br)n1)c1ccccc1 [Example 99, 3-[(Z)-{[(2-bromo-1,3-thiazol-4-yl)methoxy]imino}(phenyl)methyl]-2-methyl-1,2,4-oxadiazol-5(2H)-one]",chromatographic logP,[1],2.68
Cn1oc(=O)nc1C(=NOCc1csc(NC(=O)C2CCc3ccccc3C2)n1)c1ccccc1 (stereo not shown) [Example 26],Eff. %,Phytophthora infestans,92%
same,Eff. %,Plasmopara viticola,94%
same,LogP,[2],3.55
"Cn1oc(=O)nc1/C(=N\OCc1csc(N)n1)c1ccccc1 [Example 4, 3-[(Z)-{[(2-amino-1,3-thiazol-4-yl)methoxy]imino}(phenyl)methyl]-2-methyl-1,2,4-oxadiazol-5(2H)-one]",chromatographic logP,[1],1.07
Cn1oc(=O)nc1C(=NOCc1csc(NC(=O)OCCc2ccccc2)n1)c1ccccc1 [Example 14],Eff. %,Phytophthora infestans,95%
same,Eff. %,Plasmopara viticola,99%
same,LogP,[2],3.35
"Cn1oc(=O)nc1/C(=N\OCc1csc(NC(=O)Cc2ccc(Cl)cc2)n1)c1ccccc1 [Example 98, 2-(4-chlorophenyl)-N-{4-[({[(Z)-(2-methyl-5-oxo-2,5-dihydro-1,2,4-oxadiazol-3-yl)(phenyl)methylene]amino}oxy)methyl]-1,3-thiazol-2-yl}acetamide]",chromatographic logP,[1],3.23
Cn1oc(=O)nc1C(=NOCc1csc(NC(=O)OC(C)(C)C)n1)c1ccccc1 [Example 20],Eff. %,Phytophthora infestans,92%
same,Eff. %,Plasmopara viticola,94%
same,LogP,[2],3.06
Cn1oc(=O)nc1C(=NOCc1csc(NC(=O)COCc2ccccc2)n1)c1ccccc1 [Example 17],Eff. %,Phytophthora infestans,100%
same,Eff. %,Plasmopara viticola,94%
same,LogP,[2],3.06
CCCCCCC(=O)Nc1nc(CON=C(c2ccccc2)c2nc(=O)on2C)cs1 [Example 1],Eff. %,Phytophthora infestans,87%
same,Eff. %,Plasmopara viticola,90%
same,LogP,[2],3.55
"[H]/N=C(/C(=N\OCc1csc(NC(=O)OCCc2ccccc2)n1)c1ccccc1)N(O)CC [Example V-4, 2-phenylethyl (4-{[({(1Z,2Z)-2-[ethyl(hydroxy)amino]-2-imino-1-phenylethylidene}amino)oxy]methyl}-1,3-thiazol-2-yl)carbamate]",chromatographic logP,[1],2.07
Cc1ccc(OC(C)C(=O)Nc2nc(CON=C(c3ccccc3)c3nc(=O)on3C)cs2)cc1 (stereo not shown) [Example 27],Eff. %,Phytophthora infestans,95%
same,Eff. %,Plasmopara viticola,96%
same,LogP,[2],3.46
"Cn1oc(=O)nc1/C(=N/OCc1csc(NC(=S)Cc2ccc(Cl)cc2)n1)c1ccccc1 [Example 101, 2-(4-chlorophenyl)-N-{4-[({[(E)-(2-methyl-5-oxo-2,5-dihydro-1,2,4-oxadiazol-3-yl)(phenyl)methylene]amino}oxy)methyl]-1,3-thiazol-2-yl}ethanethioamide]",chromatographic logP,[1],3.85
C#CCC(C)OC(=O)Nc1nc(CON=C(c2ccccc2)c2nc(=O)on2C)cs1 (stereo not shown) [Example 10],Eff. %,Phytophthora infestans,93%
same,Eff. %,Plasmopara viticola,88%
same,LogP,[2],2.80
"CN(O)C(=N)/C(=N\OCc1csc(N)n1)c1ccccc1 [Example V-2, (2Z)-2-{[(2-amino-1,3-thiazol-4-yl)methoxy]imino}-N-hydroxy-N-methyl-2-phenylethanimidamide]",chromatographic logP,[1],0.47
CCCCCC(=O)Nc1nc(CON=C(c2ccccc2)c2nc(=O)on2C)cs1 [Example 12],Eff. %,Phytophthora infestans,92%
same,Eff. %,Plasmopara viticola,94%
same,LogP,[2],3.19
CCCCCCCC(=O)Nc1nc(CON=C(c2ccccc2)c2nc(=O)on2C)cs1 [Example 13],Eff. %,Phytophthora infestans,95%
same,Eff. %,Plasmopara viticola,99%
same,LogP,[2],3.94
Cn1oc(=O)nc1C(=NOCc1csc(NC(=O)SC(C)(C)C)n1)c1ccccc1 [Example 18],Eff. %,Phytophthora infestans,97%
same,Eff. %,Plasmopara viticola,93%
same,LogP,[2],3.44
CC(Oc1ccccc1)C(=O)Nc1nc(CON=C(c2ccccc2)c2nc(=O)on2C)cs1 (stereo not shown) [Example 2],Eff. %,Phytophthora infestans,97%
same,Eff. %,Plasmopara viticola,97%
same,LogP,[2],3.15
